# Biological target: T1, Endothelial lipase (Homo sapiens, UniProt Q9Y5X9)
# T1 sequence (Q9Y5X9 whole entry): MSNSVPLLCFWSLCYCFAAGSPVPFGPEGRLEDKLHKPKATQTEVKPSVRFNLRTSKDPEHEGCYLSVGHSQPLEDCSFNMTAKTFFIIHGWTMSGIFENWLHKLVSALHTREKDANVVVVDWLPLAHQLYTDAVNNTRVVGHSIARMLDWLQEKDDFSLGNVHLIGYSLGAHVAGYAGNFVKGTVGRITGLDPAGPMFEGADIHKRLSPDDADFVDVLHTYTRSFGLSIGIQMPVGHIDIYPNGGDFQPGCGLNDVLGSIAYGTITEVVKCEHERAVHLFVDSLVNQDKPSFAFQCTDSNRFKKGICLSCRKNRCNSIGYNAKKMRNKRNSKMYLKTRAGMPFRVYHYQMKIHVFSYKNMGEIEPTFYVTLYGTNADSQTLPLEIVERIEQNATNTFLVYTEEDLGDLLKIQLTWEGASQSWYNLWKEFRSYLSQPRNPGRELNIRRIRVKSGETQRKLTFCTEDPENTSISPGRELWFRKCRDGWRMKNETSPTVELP
# Assay: Biological Activity: Endothelial lipase (EL) and hepatic lipase (HL) activities were measured using a fluorescent substrate, A10070, (Invitrogen, CA) doped into an artificial vesicle containing DMPG (Avanti Polar Lipids) as the excipient. Vesicles were prepared by combining 571 μL of 29 mM DMPG in a 1:1 mixture of MeOH and CHCl3 with 2000 μL of 1 mM A10070 in a 1:1 mixture of MeOH and CHCl3. The mixture was dried under nitrogen in multiple vials then resuspended in 20 mL total volume of 50 mM HEPES pH 8.0 buffer containing 50 mM NaCl and 0.2 mM EDTA. The sample was allowed to sit at room temperature for 15 min and then was sonicated 3×4 mins on ice with a Branson Sonicator using duty cycle 1. This preparation provides vesicles with a mole fraction of 0.11 for the FRET substrate.The enzymatic assay was measured using 384-well white Optiplates. Each well contained 20 μL of assay buffer (50 mM HEPES pH 8.0, 50 mM NaCl and 1 mM CaCl2) and 0.25 μL of a DMSO solution containing a compound of interest. EL or HL (10 μL) was added and allowed to incubate with the compound for 30 min at 37° C. The source of EL was conditioned media obtained from HT-1080 cells that were transformed using RAGE technology (Athersys) to overexpress endogenous EL, and HL was partially purified from conditioned media obtained from COS cells overexpressing HL. The reaction was started by the addition of 10 μL of a 1:10 dilution of vesicles. The final total reaction volume was […]. The reaction rates were measured on a Gemini plate reader with an excitation wavelength of 490 nm and an emission wavelength of 530 nm. Readings were taken over a period of 60 minutes, and the slope between 300 and 900 secs of the readout was used to calculate the rate of the reaction.
row,Compound,IC50 [nM]
1,C[C@H]1CN(C(=O)c2ccc(-c3ccc4nc(C(C(=O)NCC(=O)NC5CC5)S(C)(=O)=O)sc4c3)cc2)CCO1 (some centres not stated),31
2,O=C(CNC(=O)C(c1nc2ccc(-c3ccc(F)nc3)cc2s1)S(=O)(=O)C1CCOCC1)NC1CC1 (configuration not stated),47
3,Cn1nccc1-c1cc2sc(C(C(=O)NCC(=O)NC3CC3)S(C)(=O)=O)nc2cc1F (configuration not stated),26
4,COCCS(=O)(=O)C(C(=O)NCC(=O)NC1CC1)c1nc2ccc(-c3ccc(N4CCCC4)nc3)cc2s1 (configuration not stated),118
5,O=C(CNC(=O)C(c1nc2cc(F)c(-c3ccc(F)nc3)cc2s1)S(=O)(=O)c1ccccc1F)NC1CC1 (configuration not stated),58
6,COCCS(=O)(=O)C(C(=O)NCC(=O)NC1CC1)c1nc2cc(-c3ccc(C)nc3)ccc2s1 (configuration not stated),34
7,COCCS(=O)(=O)C(C(=O)NCC(=O)NC1CC1)c1nc2ccc(-c3ccc(C(N)=O)c(Cl)c3)cc2s1 (configuration not stated),33
8,COCCS(=O)(=O)C(C(=O)NCC(=O)NC1CC1)c1nc2c(F)cc(-c3cccnc3F)cc2s1 (configuration not stated),106
9,O=C(CNC(=O)C(c1nc2ccc(-c3cccnc3F)cc2s1)S(=O)(=O)c1ccccc1)NC1CC1 (configuration not stated),102
10,COCCS(=O)(=O)C(C(=O)NCC(=O)NC1CC1)c1nc2ccc(-c3cccnc3C(F)(F)F)cc2s1 (configuration not stated),37

# These reach a lower IC50. Values come first.
row,IC50 [nM],Compound
1,11,COCCS(=O)(=O)C(C(=O)NCC(=O)NC1CC1)c1nc2cc(-c3ccc(OC(C)C)nc3)ccc2s1 (configuration not stated)
2,9,CC(=O)Nc1ccc(-c2cc3sc(C(C(=O)NCC(=O)NC4CC4)S(C)(=O)=O)nc3cc2F)cc1 (configuration not stated)
3,7,CS(=O)(=O)C(C(=O)NCC(=O)NC1CC1)c1nc2cc(F)c(-c3ccc4c(c3)CCCN4C(=O)Cc3c(F)cccc3F)cc2s1 (configuration not stated)
4,6,CS(=O)(=O)C(C(=O)NCC(=O)NC1CC1)c1nc2cc(F)c(-c3ccc(=O)n(-c4ccccc4)c3)cc2s1 (configuration not stated)
5,4,CS(=O)(=O)C(C(=O)NCC(=O)NC1CC1)c1nc2cc(-c3ccccc3)c(F)cc2s1 (configuration not stated)
6,3,COCCS(=O)(=O)C(C(=O)NCC(=O)NC1CC1)c1nc2cc(F)c(-c3ccc4c(c3)CCN4)cc2s1 (configuration not stated)
7,1,CS(=O)(=O)C(C(=O)NCC(=O)NC1CC1)c1nc2cc(F)c(-c3ccc(C(=O)NCCc4ccccc4)cc3)cc2s1 (configuration not stated)

# Source: ChEMBL document CHEMBL5726146, “Sulfone amide linked benzothiazole inhibitors of endothelial lipase” (2019)
